Source: US4436732A, “Medicated compound for treating diseases infected by virus of the herpes group” (priority 1981, dated 1984)

Experiments:
[1] = effect on acute exudative and chronical proliferative phases of inflammation; type: in vivo, mice
Protocol: The effect of the active principle on the acute exudative and chronical proliferative phases of inflammation in doses of 10 and 50 mg/kg has been studied upon per os administration to mice.

[2] = effect on hemodynamics and breathing, acute experiment on narcotized cats; type: in vivo; details: 50 mg/kg intra-stomach
Protocol: The study of the effect of this compound on the characteristics of hemodynamics and breathing has been carried out in an acute experiment on 6 narcotized cats (urethane 1.0 g/kg, chloralose 60 mg/kg) upon the intra-stomach administration of the active principle in the dose of 50 mg/kg. In each cat simultaneously recorded were the breathing frequency cardiac contraction frequency, systemic arterial pressure, amplitude of the volume blood flow in the abdominal aorta, amplitude of the brain rheograms and femur muscles rheorgrams.

[3] = cardiological effect / electrocardiographic characteristics; type: in vivo, rabbits; details: for increase of amplitude of cardiac contractions: P=0.05
Text: (§1) The cardiological effect of the active principle has been studied in experiments on an isolated cat's heart; the effect on electrocardiographic characteristics has been studied in experiments on rabbits; the vasodilative effect--on vessels of an isolated rabbit's ear; the spasmolytic effect--on acetylcholine and barium spasms of smooth muscles of an isolated section of a rat's small intestine.
The studies have shown that upon the intravenous administration to rabbits of the active principle in the dose of 20 mg/kg it causes increased amplitude of cardiac contractions by 34% (P=0.05), in the dose of 50 mg/kg--by 41% (P=0.05); rarefaction of the rhythm of cardiac contractions in rabbits by 10-18% on the average and increase of the voltage of the peak P by 32%. […] A slight increase of the voltage of the peak P on the average by 20% is observed.

[4] = anti-ulcerous effect on the model of caffeine-arsenic ulcer; type: in vivo, rats; details: per os for nine days, 20 mg/kg
Protocol: The anti-ulcerous effect of the active principle has been studied on the model of caffeine-arsenic ulcer in rats. The substance is administered per os for nine days in the doses of 1, 10 and 20 mg/kg.

[5] = tested on: smooth muscles of an isolated section of a rat's small intestine; experiment: spasmolytic effect on acetylcholine and barium spasms of smooth muscles of an isolated section of small intestine
Text: as §1

[6] = acute toxicity and tolerance; design: species or system white mice, rats, guinea pigs and dogs; details: in vivo
Protocol: The study of an acute toxicity and tolerance of the active principle and the medicated compound in the form of tablets has been carried out on white mice, rats, guinea pigs and dogs with different modes of administration.
The active principle and tablets of the are administered in the form of an aqueous suspension hypodermally, intraperitoneally and in stomach.

teratogenic activity = type: in vivo, rats; details: 10 and 100 mg/kg per os daily for 30 days
Protocol: The study of the teratogenic activity of the active principle has been carried out on 15 couples of adult rats weighing 350 g divided into 3 groups of 5 couples in each. The females of the first group were daily administred 10 mg/kg of the active principle per os for 30 days until the birth of small rats; the females of the second group were administered 100 mg/kg of the active principle during the same period; the females of the third group were the control.

[7] = intra-stomach, 50 and 150 mg/kg

O=c1c2cc(O)c(O)cc2oc2cc(O)c([C@@H]3O[C@H](CO)[C@@H](O)[C@H](O)[C@H]3O)c(O)c12 [active principle, 2-C-β-D-glucopyranosyl-1,3,6,7-tetraoxyxanthone]
exudative phase in chronical proliferative inflammation ([1]; model of chronical proliferative inflammation): somewhat suppresses
development of the exudative phase of inflammation ([1]; per os, 50 mg/kg): suppresses the development of the exudative phase of inflammation
antiphlogistic activity relative to formalin edema ([1]; per os, 50 mg/kg, P below 0.005): 12.7
antiphlogistic activity relative to dextran edema ([1]; per os, 50 mg/kg, P below 0.05): 16.5
lowering of penetration of skin vessels ([1]; per os, 50 mg/kg, P below 0.05): 15%
antiphlogistic effect ([1]; per os, 10 and 50 mg/kg): slight antiphlogistic effect
formation of granulation-fibrous tissue ([1]; proliferative stage of chronical inflammation): retards the formation of a granulation-fibrous tissue
other characteristics of hemodynamics ([2]; narcotized cats): not substantially changed
systemic arterial pressure ([2]; narcotized cats): slightly lowers
reduction of arterial pressure ([2]; 60 and 90 minutes): do not differ from the control
reduction of breathing frequency vs control ([2]; 60 and 90 minutes): do not differ from the control
reduction of breathing frequency ([2]; 10 minutes, P below 0.05): 21%
reduction of breathing frequency ([2]; 30 minutes, P below 0.01): 32%
effect on duration of intervals of the cardiac cycle [3, 7]: no substantial effect
effect on the rhythm of cardiac contractions [3, 7]: no substantial effect
increase of the voltage of the peak P ([3]; intra-stomach, 50 and 150 mg/kg, on the average): 20%
increase of the voltage of the peak P ([3]; intravenous, rabbits): 32%
increase of amplitude of cardiac contractions ([3]; intravenous, rabbits, 20 mg/kg): 34%
increase of amplitude of cardiac contractions ([3]; intravenous, rabbits, 50 mg/kg): 41%
rarefaction of the rhythm of cardiac contractions ([3]; intravenous, rabbits, on the average): 10-18%
cardiostimulant effect ([3]; rabbit, in vivo): slight cardiostimulant effect
anti-ulcerous effect [4]: weak anti-ulcerous effect
spasmolytic effect [5]: no vasodilative and spasmolytic effect
toxicity (overall) [6]: low-toxic
LD50 ([6]; ip, intraperitoneal): 3000 to 4000 mg/kg
LD50 ([6]; po, in-stomach): 10000 mg/kg
LD50 ([6]; sc, hypodermal): > 5000 mg/kg
teratogenic properties (teratogenic activity): no teratogenic properties
